Source: article PMC11253624, “Unsaturated fatty acid perturbation combats emerging triazole antifungal resistance in the human fungal pathogen Aspergillus fumigatus” (mBio, 2024)
≈ marks a conversion by molar mass, not a printed value. Read-outs that look alike come from different tables or passages of the source.

Assays:
[1] = system: Aspergillus nidulans; experiment: microbe, parasite or virus in culture; format: cell-based; settings: strain FGSC A4
[2] = system: A. fumigatus CEA10; experiment: Fatty acid profile of 24-hour biofilms by GC-MS; format: cell-based, Aspergillus fumigatus; settings: CEA10 24-hour biofilm; MBX-7591 0.58 µg/mL, voriconazole 0.0625 µg/mL
[3] = system: Aspergillus flavus; experiment: CLSI-based microbroth dilution MIC, spectrum of activity; format: cell-based; settings: for MIC: Aspergillus flavus
[4] = system: Aspergillus fumigatus; experiment: CLSI-based microbroth dilution MIC, A. fumigatus strains
[5] = system: Histoplasma capsulatum; experiment: microbe, parasite or virus in culture; format: cell-based
[6] = system: Aspergillus terreus; experiment: microbe, parasite or virus in culture; format: cell-based; settings: strain AT1
[7] = system: Cryptococcus neoformans; experiment: FIC checkerboard assay MBX-7591 and oleic acid, C. neoformans; format: cell-based; settings: H99, MBX-7591 + 31.25 μg/ml OA
Procedure: Single-treatment controls were completed with 50 µL of media to substitute the volume of the other compound. […] Additional untreated and media-only controls were added to the plate as described above. Incubation of the plates and MIC assessments (individual and in combination) were performed as described above. FIC calculations were done according to the established formula: ∑FIC=MIC combination compound A/MIC individual compound A + MIC combination compound B/MIC individual compound B . Synergy was considered equal or lower than 0.5, and antagonism was considered to be higher than 2. FIC scores reported represent between three and five biological replicates. All antifungal susceptibility testing was done in 96-well plates using RPMI 1640 media buffered with 165 mM of MOPS and pH 7 using NaOH. CLSI-based microbroth dilution assays were done in accordance with M27 ([49]). […] Additionally, an untreated control (100 µL of a stock of 2 × 10^3 spores/mL and 100 µL of media) and a media-only control (200 µL media) were included in the plate. The plate was covered in a Breathe-Eazy membrane to allow for uniform oxygen diffusion throughout the plate and incubated for 24 hours at 35°C (Candida spp.) or 72 hours at 35°C ± 5% CO2 (Cryptococcus neoformans).

[8] = system: Rhizopus delemar; experiment: CLSI-based microbroth dilution MIC, spectrum of activity; format: cell-based; settings: strain 99-880; for MIC: Rhizopus delemar
[9] = system: Candida auris; experiment: CLSI-based microbroth dilution MIC for yeast; format: cell-based; settings: Candidozyma auris
[10] = system: Mucor spp.; experiment: CLSI-based microbroth dilution MIC, spectrum of activity; format: cell-based; settings: for MIC: Mucor
[11] = system: Coccidioides spp.; experiment: microbe, parasite or virus in culture; format: cell-based
[12] = system: Cryptococcus neoformans; experiment: CLSI-based microbroth dilution MIC for yeast; format: cell-based; settings: for MIC: Cryptococcus neoformans
[13] = Caco-2 permeability; format: in vitro ADME; settings: human
[14] = system: Aspergillus fumigatus; experiment: FIC checkerboard synergy assay, A. fumigatus; format: cell-based; settings: for MIC: Aspergillus fumigatus
[15] = system: Blastomyces dematitidis; experiment: microbe, parasite or virus in culture; format: cell-based
[16] = Aqueous solubility (nephelometric); format: physicochemical; settings: kinetic from dmso stock
Procedure: The maximum aqueous solubility of each compound was determined using a nephelometric method as described ([51]). Each assay comprised three technical replicates, and each assay was repeated at least once. The reported solubility is the average of at least five technical replicates. […]

[17] = system: Candida albicans; experiment: CLSI-based microbroth dilution MIC for yeast; format: cell-based
[18] = read-out: MIC UTHSC, strain DI14-269
[19] = read-out: MIC UTHSC, strain DI14-284
[20] = read-out: MIC UTHSC, strain DI17-143

Q: With `O=C(c1ccsc1)N1CCC(Cc2ccc(COc3ccncc3)cc2)CC1` [MBX-7591] as the compound, how does the MIC [1] read?
A: Its MIC is greater than 39.2 µg/mL.

Q: And the “C14:0 relative percentage of fatty acids” value [2]?
A: The value was 0.19 ± 0.057.

Q: What about the “C15:0 relative percentage of fatty acids” value [2] of the same compound?
A: The value was 0.59 ± 0.034.

Q: What about the “C16:0 (palmitic acid) relative percentage of fatty acids” value [2] of the same compound?
A: Its value is 23.30 ± 0.48.

Q: What about the “C16:1n7 relative percentage of fatty acids” value [2] of the same compound?
A: The value was 0.68 ± 0.040.

Q: What about the “C17a relative percentage of fatty acids” value [2] of the same compound?
A: Its value is 0.15 ± 0.025.

Q: What about the “C18:0 (stearic acid) relative percentage of fatty acids” value [2] of the same compound?
A: Its value is 4.44 ± 0.95.

Q: What about the “C18:1n7 relative percentage of fatty acids” value [2] of the same compound?
A: The value was 1.30 ± 0.18.

Q: What about the “C18:1n9 (oleic acid) relative percentage of fatty acids” value [2] of the same compound?
A: Its value is 20.48 ± 1.30.

Q: What about the “C18:2n6 relative percentage of fatty acids” value [2] of the same compound?
A: The value was 48.87 ± 0.91.

Q: And the MIC ([3]; ATCC204304, strain ATCC 204304)?
A: Its MIC is greater than 32 µg/mL.

Q: And the MIC ([3]; strain Aflav1)?
A: The MIC was greater than 32 µg/mL.

Q: And the “MIC UTHSC” value ([3]; strain Aflav2)?
A: Its value is greater than 32 µg/mL.

Q: And the “effect of CO2 levels on A. fumigatus susceptibility” value [4]?
A: Its value is “not impacted by CO2 levels”.

Q: What about the MIC ([4]; Aspergillus fumigatus, read-out: MIC (activity against various A. fumigatus strains)) of the same compound?
A: Its MIC is roughly 2 µg/mL (≈ 5.1 µM).

Q: And the MIC [5, 18]?
A: The MIC was 4 µg/mL (≈ 10.2 µM).

Q: And the MIC [5, 19]?
A: Its MIC is 1 µg/mL (≈ 2.55 µM).

Q: What about the MIC [5, 20] of the same compound?
A: Its MIC is 0.5 µg/mL (≈ 1.27 µM).

Q: And the MIC [6]?
A: The MIC was greater than 32 µg/mL.

Q: And the “FIC value” [7]?
A: Its value is greater than 4.

Q: And the MIC [8]?
A: The MIC was 0.31 µg/mL (≈ 0.79 µM).

Q: What about the MIC ([8]; read-out: MIC UTHSC) of the same compound?
A: Its MIC is roughly 0.25 µg/mL (≈ 0.637 µM).

Q: What about the “MIC UTHSC” value [8] of the same compound?
A: Its value is 0.25 µg/mL (≈ 0.637 µM).

Q: What about the MIC ([9]; Clade I, Clade III) of the same compound?
A: The MIC was greater than 39.2 µg/mL.

Q: What about the MIC ([9]; NIH: DI17-47, DI17-48, DI17-46, read-out: MIC UTHSC) of the same compound?
A: The MIC was greater than 32 µg/mL.

Q: And the MIC ([10]; CBS277, strain CBS 277.49)?
A: Its MIC is greater than 39.2 µg/mL.

Q: What about the MIC ([10]; strain DI15-131, read-out: MIC UTHSC) of the same compound?
A: The MIC was greater than 32 µg/mL.

Q: And the “MIC UTHSC” value ([10]; strain Mucor1)?
A: Its value is greater than 32 µg/mL.

Q: And the “MIC UTHSC” value ([10]; strain Mucor2)?
A: The value was greater than 32 µg/mL.

Q: What about the MIC [11, 18] of the same compound?
A: The MIC was greater than 32 µg/mL.

Q: What about the MIC [11, 19] of the same compound?
A: The MIC was 8 µg/mL (≈ 20.4 µM).

Q: What about the MIC [11, 20] of the same compound?
A: Its MIC is greater than 32 µg/mL.

Q: And the MIC ([12]; strain H99, 0% CO2, read-out: MIC 0% CO2)?
A: Its MIC is greater than 39.2 µg/mL.

Q: What about the MIC ([12]; strain H99, 5% CO2, Table S4, read-out: MIC 5% CO2) of the same compound?
A: The MIC was 2.45 µg/mL (≈ 6.24 µM).

Q: And the MIC ([12]; strain H99, MIC obtained under 5% CO2, Table S3)?
A: The MIC was 2.45 µg/mL (≈ 6.24 µM).

Q: And the MIC ([12]; strain H99, read-out: MIC UTHSC)?
A: Its MIC is greater than 32 µg/mL.

Q: What about the “MIC 0% CO2” value ([12]; strain A7-35-23, 0% CO2) of the same compound?
A: The value was greater than 39.25 µg/mL.

Q: And the “MIC 5% CO2” value ([12]; strain A7-35-23, 5% CO2)?
A: The value was 2.45 µg/mL (≈ 6.24 µM).

Q: What about the “MIC 0% CO2” value ([12]; strain C23, 0% CO2) of the same compound?
A: Its value is greater than 39.25 µg/mL.

Q: What about the “MIC 5% CO2” value ([12]; strain C23, 5% CO2) of the same compound?
A: Its value is 2.45 µg/mL (≈ 6.24 µM).

Q: And the “MIC 0% CO2” value ([12]; strain JEC21, 0% CO2)?
A: The value was greater than 39.25 µg/mL.

Q: What about the “MIC 5% CO2” value ([12]; strain JEC21, 5% CO2) of the same compound?
A: The value was 2.45 µg/mL (≈ 6.24 µM).

Q: And the efflux ratio [13]?
A: The efflux ratio was 0.49.

Q: And the Papp A→B ([13]; A→B, method b66 gives Papp in cm/s)?
A: The Papp A→B was 11 ×10⁻⁶ cm/s.

Q: What about the Papp B→A ([13]; B→A, method b66 gives Papp in cm/s) of the same compound?
A: Its Papp B→A is 5.6 ×10⁻⁶ cm/s.

Q: And the “average FIC” value [14]?
A: Its value is 0.5.

Q: And the MIC ([14]; strain 08-19-02-61, alone)?
A: Its MIC is 2.45 µg/mL.

Q: And the MIC ([14]; strain 08-31-08-91, alone)?
A: Its MIC is 4.91 µg/mL.

Q: And the MIC ([14]; strain F11628, alone)?
A: The MIC was 2.45 µg/mL.

Q: And the MIC ([14]; strain F15390 (caf8), alone)?
A: The MIC was 2.45 µg/mL.

Q: And the “FIC value” ([14]; CEA10, MBX-7591 + 7.81 μg/ml OA)?
A: The value was 4.

Q: And the “FIC value” ([14]; CEA10, MBX-7591 + 15.63 μg/ml OA)?
A: The value was 8.

Q: And the “FIC value” ([14]; CEA10, MBX-7591 + 31.25 μg/ml OA)?
A: The value was greater than 8.

Q: And the FIC value ([14]; strain 08-19-02-61, MBX-7591 + VCZ)?
A: The FIC value was 0.5.

Q: And the FIC value ([14]; strain 08-31-08-91, MBX-7591 + VCZ)?
A: The FIC value was 0.5.

Q: What about the FIC score ([14]; strain CEA10, MBX-7591 + FLC) of the same compound?
A: Its FIC score is 0.312.

Q: What about the FIC value ([14]; strain CEA10, MBX-7591 + VCZ) of the same compound?
A: Its FIC value is 0.375–0.5.

Q: What about the FIC value ([14]; strain F11628, MBX-7591 + VCZ) of the same compound?
A: Its FIC value is 0.3125–0.375.

Q: And the FIC value ([14]; strain F15390 (caf8), MBX-7591 + VCZ)?
A: Its FIC value is 0.5.

Q: What about the MIC ([15]; strain DI19-271) of the same compound?
A: The MIC was 0.5 µg/mL (≈ 1.27 µM).

Q: And the MIC ([15]; strain DI19-277)?
A: Its MIC is 8 µg/mL (≈ 20.4 µM).

Q: What about the MIC ([15]; strain DI19-282) of the same compound?
A: The MIC was 4 µg/mL (≈ 10.2 µM).

Q: What about the solubility [16] of the same compound?
A: Its solubility is 50 µM (≈ 19.6 µg/mL).

Q: What about the MIC ([17]; strain SC5314) of the same compound?
A: The MIC was greater than 39.2 µg/mL.

Q: What about the MIC ([17]; strain SC5314, read-out: MIC UTHSC) of the same compound?
A: Its MIC is greater than 32 µg/mL.
